The text below walks through data of US12516063B2, “Substituted 7-(methylamino)pyrazolo[1,5-a]pyrimidine-3-carboxamide derivatives for treating autoimmune diseases” (Eli Lilly and Company, priority 2020, dated 2026).

Assay [1] deals with T1, pseudokinase domain (JH2) of human TYK2 (Homo sapiens, UniProt P29597).
T1 construct: The pseudokinase domain (JH2) of human JAK (Janus family of cytoplasmic tyrosine kinases) family tyrosine kinase 2 (TYK2); made in house
Kind of assay: TYK2-JH2 Tracer Binding Assay. The note with it: His-tagged TYK2-JH2 0.200 nM, Tracer 2.00 nM, 30 minutes, TR-FRET; n=1. The source says:
The pseudokinase domain (JH2) of human JAK (Janus family of cytoplasmic tyrosine kinases) family tyrosine kinase 2 (TYK2) (Genbank NP_003322) with an N-terminal His6 tag is expressed in baculovirus and purified by HisPur Ni-NTA affinity and Superdex 200 size-exclusion chromatography. The compound prepared in Preparation 11, a conjugate of Alexa Fluor 647 dye (Thermo Fisher Scientific) and a suitable TYK2 JH2 binder, is referred to herein as “the Tracer”. A 3 fold, 10 point serial dilution of compound, Example 1 and Example 2, are prepared in 100% DMSO and 50 nL/well transferred to a Proxiplate-384F white plate (PerkinElmer 6008280) using acoustic liquid handling. Control wells used to determine percent inhibition contained 100% DMSO (50 nL) and either assay buffer containing the Tracer (2.00 nM final concentration) (min, low FRET) or diluted TYK2-JH2 enzyme (0.200 nM final concentration) and the Tracer (2.00 nM final concentration) (max, high FRET). […] After 30 minutes, the plate is counted on a PerkinElmer Envision with the following settings: Excitation (340 nm), Tracer Emission (665 nm) and LanthaScreen Eu-anti-His Antibody Emission (615 nm). The ratio of Tracer Emission (665 nm) over LanthaScreen Eu-anti-His Antibody Emission (615 nm) is determined.
A general note: TR-FRET usually uses a lanthanide donor and a delayed reading to cut background.

Assay [2] concerns IFNα signaling through pSTAT1 in TF1 cells. Kind of assay: Inhibition of IFNα Signaling Through pSTAT1 in TF1 Cells. Format: cell-based. The note with it: Homo sapiens, TF-1, 1 hour pre-incubation, 10 ng/mL IFNα2 for 20 minutes, GeoMetric mean (SEM), read-out: IC50 (inhibition of p-Stat1 (Tyr701)). Here is the method:
TF1 cells (ATCC, CL-2003) are grown in RPMI 1640 (GIBCO) supplemented with 10% dialyzed FBS, 0.1 mg/mL Ampicillin and 2 ng/mL granulocyte macrophage colony stimulating factor. TF1 cells (100 K per well) are seeded in a 96-well poly-D-lysine coated plates in serum-free DMEM and incubated overnight at 37° C. under 5% CO2. Example 1 is serially diluted in DMSO, added to the cells, and incubated at 37° C. for 1 hour. Cells are then stimulated with 10 ng/mL IFNα2 at 37° C. for 20 minutes. After removing the medium, the cells are lysed in buffer containing Halt protease and phosphatase inhibitor cocktail (Thermo Scientific #78441) at ambient temperature for 30 minutes. The amount of p-Stat1 (Tyr701) is quantified as light emission at 615 nm using the AlphaLISA SureFire Ultra p-Stat1 (Tyr701) assay kit (Perkin Elmer #ALSU-PST1-A50K) following the vendor's recommended protocol.

In assay [3] the test system is IL-23 signaling (STAT3 phosphorylation) in Kit225 cells. Briefly: IL23 pSTAT3 AlphaLISA Assay. The assay is classed as cell-based. The note with it: 1 hour pre-incubation, IL23 25 ng/mL for 30 minutes, GeoMetric mean (SEM), read-out: relative IC50 (IL23 pSTAT3 AlphaLISA). Here is the method:
IL2-dependent Kit225 cells (University of Texas MD Anderson Cancer Center) expressing endogenous IL23 receptors are stably transduced with the Lenti STAT3 Reporter linked to firefly luciferase (SABiosciences CLS-6028L). These cells are used to monitor TYK2 activity by quantifying gene expression caused by STAT3 phosphorylation following induction by IL23 in the presence of IL2 using AlphaLISA technology (TGR Biosciences ALSU-TST3-A50K). The cells are grown in RPMI 1640 (Gibco 22400) supplemented with 10% FBS (Invitrogen 10082), 1×Pen/Strep (Gibco 15140-122), 200 ng/ml Puromycin (Sigma P9620), and fresh 10 ng/ml recombinant human IL2 (R&D Systems 202-IL-50).
For assay preparation, cells are dispensed into Biocoat black poly-d-lysine coated clear bottom 384-well plates (Becton Dickinson Bio-Coat 35-4640) in DMEM (Sigma D5796) at 300,000 cells/well and allowed to incubate overnight at 37° C. Compounds solubilized in DMSO are serially diluted 1:3 to produce a 10-point concentration response curve (final DMSO=0.1%). Cells are pre-incubated with Example 1 for 1 hour at 37° C., then stimulated with IL23 (25 ng/mL final) for 30 minutes. […] The AlphaLISA reaction is performed following the vendor's recommended protocol, and the […] are measured using an Envision plate reader (Perkin Elmer).

T1 sequence (P29597 589-875 limits assumed): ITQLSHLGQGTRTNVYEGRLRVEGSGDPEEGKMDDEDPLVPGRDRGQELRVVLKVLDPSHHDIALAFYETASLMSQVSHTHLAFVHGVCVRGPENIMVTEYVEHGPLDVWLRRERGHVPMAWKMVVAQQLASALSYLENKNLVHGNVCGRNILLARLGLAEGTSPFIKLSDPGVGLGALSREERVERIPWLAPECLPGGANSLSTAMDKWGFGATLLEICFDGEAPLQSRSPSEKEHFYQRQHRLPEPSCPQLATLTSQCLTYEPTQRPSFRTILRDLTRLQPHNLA

As to `CNc1cc(Nc2cc(C)cc(C)n2)nc2c(C(=O)N[C@@H]3CCN(C)C3=O)cnn12` [Example 2, 5-[(4,6-Dimethyl-2-pyridyl)amino]-7-(methylamino)-N-[(3R)-1-methyl-2-oxo-pyrrolidin-3-yl]pyrazolo[1,5-a]pyrimidine-3-carboxamide], the values for the IC50 in assay [1], in assay [2] and in assay [3] were under 0.254 nM, 84 nM and 60 nM, respectively.

With `CCOc1cccc(Nc2cc(NC)n3ncc(C(=O)N[C@@H]4CCN(C)C4=O)c3n2)n1` [Example 1, 5-[(6-Ethoxy-2-pyridyl)amino]-7-(methylamino)-N-[(3R)-1-methyl-2-oxo-pyrrolidin-3-yl]pyrazolo[1,5-a]pyrimidine-3-carboxamide], the IC50 – broadly, the concentration that gives 50% inhibition – in assay [1] was under 0.254 nM; in assay [2], 38 nM; in assay [3] it was 29 nM.
